Like-named read-outs stand apart in the source and are kept apart here.
Key:
HeLa = assay: MTT cytotoxicity assay, HeLa; type: cell-based; details: 72 h, mean ± SD (n = 3)
Method: (§1) HCT 116, HeLa, A549, Hep G2, and Caco-2 cell lines were obtained from the China Center for Type Culture Collection, CCTCC (Wuhan, China). They were cultured in DMEM, including 10% FBS, 1% penicillin (l00 μg/mL), and 1% streptomycin (l00 μg/mL), in a constant temperature incubator at 37 °C with 5% CO2.
(§2) The cytotoxicity of FL118, FL77-28, and FL77-29 against HCT116, HeLa, A549 HepG2, and Caco-2 cell lines were measured using MTT assays. The cells were plated into 96-well plates at a density of 2 × 10^4 cells/mL and cultured for 24 h. Next, the cells were treated with 0.0125–0.500 μM of FL118, FL77-28, and FL77-29 for 4 h or 72 h. After incubation with 20 µL of 5 mg/mL MTT solution for 4 h, the supernatant was gently discarded and 150 µL of DMSO was added to dissolve the formazan crystals. Finally, the absorbance was measured at 570 nm and the background was subtracted at 630 nm using an ELISA Plate Reader.

A549 = assay: MTT cytotoxicity assay, A549; type: cell-based; details: 72 h, mean ± SD (n = 3)
Method: as §1, §2

Caco-2 cell monolayers = assay: Transport across Caco-2 cell monolayers; type: in vitro ADME; details: for Papp AP-BL / efflux ratio (ER) = Papp BL-AP/Papp AP-BL: 1.0 μM; for Papp AP-BL: AP FaSSIF pH 6.5, BL HBSS pH 7.4; for efflux ratio (ER) = Papp BL-AP/Papp AP-BL: Caco-2 monolayer
Method: When Caco-2 cells reached 80–90% confluence in T-25 flasks, the cells were digested, centrifuged, and resuspended. After seeding at a density of 2 × 10^5 cells/well onto the apical of the Transwell® plate, 0.5 mL of 10% DMEM was added into the apical (AP) chamber and 1.5 mL of 10% DMEM was added into the basolateral (BL) chamber. The buffer was refreshed every two days, and after one week it was refreshed daily and incubated until 21 days.
The integrity of the Caco-2 cell monolayer was evaluated by measuring the transepithelial electrical resistance (TEER) and the permeability of Lucifer yellow (LY). The TEER was measured using Millicell® ERS-2 voltameter (Bedford, USA). The Caco-2 cell model was used for the transport of FL77-28 and FL77-29 when the TEER values exceeded 300 Ω/cm^2. The TEER value was also measured at the end of the transport experiment. In addition, the permeability of LY, a paracellular transport marker, was also measured for the tightness of epithelial cells. […] Then, the fluorescence of samples was measured at excitation/emission wavelengths of 492/520 nm using the ELISA Plate.
Before the transport studies, the Caco-2 cell monolayers were washed twice with warm HBSS containing 15 mM glucose, 10 mM HEPES, and 1% BSA (pH 7.4) and pre-incubated for 30 min at 37 °C [26]. Next, HBSS was discarded and replaced with 0.5/1.0 µM of FL77-28 and FL77-29 dissolved in a different buffer on one side of the cell layer, 0.5 mL for the AP side and 1.5 mL for the BL side. The buffer at the AP was FaSSIF (pH 6.5) and the buffer at the BL was HBSS. Then, the monolayers were incubated at 37 °C. A sample aliquot of 0.5 mL (AP-BL) or 0.25 mL (BL-AP) was taken from the receiving compartment at different time points (120, 150, 180, 210, and 240 min) and then replaced with an equal volume of fresh pre-warmed buffer. The concentrations of FL77-28 and FL77-29 in the sample were determined by HPLC.
(§3) Using the Shimadzu HPLC system (Shimadzu, Kyoto, Japan), the samples taken from the uptake experiment and the transport studies were eluted on a C18 reverse-phase column (250 mm × 4.6 mm, 5 μm, Elite, Dalian). The column was maintained at 40 °C and the absorbance detector wavelength was 365 nm. The mobile phase used for FL118, FL77-28, and FL77-29 consisted of acetonitrile: 0.1% formic acid (40:60, v/v), (60:40, v/v), and (65:35, v/v). The flow rate was 1.0 mL/min, and the injection volume was 20 μL. The retention times of FL118, FL77-28, and FL77-29 were 6.109 min (Figure 1A), 8.456 min (Figure 1B), and 6.351 min (Figure 1C), respectively. Calibration curves were constructed over a concentration range of 0.03–1.00 μM. […] The concentration of FL118, FL77-28, and FL77-29 was determined according to the typical equations.
The concentration of each sample was measured by HPLC. The Papp of FL77-28 and FL77-29 was calculated according to the following equation:Papp (cm/s) = V/(C0·A)·(ΔQ/Δt)(1) where V (cm^3) is the volume of the receiver compartment, A is the monolayer surface area of the Transwell insert (1.12 cm^2), C0 is the initial drug concentration in the donor compartment, and (ΔQ/Δt) is the transport rate.
The efflux ratio (ER) was calculated using the following equation:ER = Papp BL-AP/Papp AP-BL(2)

Hep G2 = assay: MTT cytotoxicity assay, Hep G2; type: cell-based; details: 72 h, mean ± SD (n = 3)
Method: as §1, §2

P-gp [1] = molecular target: T1, P-gp (Homo sapiens, UniProt P08183); assay: Cellular uptake in Caco-2 cells with P-gp inhibitor Verapamil; type: in vitro ADME; design: endogenous in cells; host or cells: Caco-2; details: 1 µM Verapamil pre-incubation 30 min, 0.2-1.0 μM, 37 °C, 4 h
Method: (§4) Caco-2 cells were plated in a 6-well plate at a density of 2 × 10^5 cells/well and cultured at 37 °C. After reaching 80% confluence, Caco-2 cells could be used in the uptake experiments. Next, the cells were washed twice with HBSS and pre-incubated with HBSS or 1 µM Verapamil or Gefitinib for 30 min. After pre-incubation, the drug-free HBSS was replaced by FaSSIF containing FL118, FL77-28, or FL77-29 (0.2, 0.4, 0.6, 0.8, and 1.0 μM), and then incubated for 4 h at 37 °C or 4 °C, respectively. Next, the cells were collected and lysed by freezing and thawing three times. Then, the cells were sonicated and centrifuged at 10,000 rpm for 10 min. Finally, the supernatants were used to measure concentrations of compounds and proteins by HPLC and Bradford methods.
as §3

Caco-2 cells [2] = system: Caco-2 cells
Method: as §1
as §2, with “Next, the cells were treated with 0.0125–0.500 μM of FL118, FL77-28, and FL77-29 for 4 h or 72 h.” left out

BCRP [3] = molecular target: T2, BCRP (Homo sapiens, UniProt Q9UNQ0); assay: Cellular uptake in Caco-2 cells with BCRP inhibitor Gefitinib; type: in vitro ADME; details: 1 µM Gefitinib pre-incubation 30 min, 0.2-1.0 μM, 37 °C, 4 h
T2 construct: endogenous in cells; host or cells: Caco-2
T2 sequence (Q9UNQ0 1-655): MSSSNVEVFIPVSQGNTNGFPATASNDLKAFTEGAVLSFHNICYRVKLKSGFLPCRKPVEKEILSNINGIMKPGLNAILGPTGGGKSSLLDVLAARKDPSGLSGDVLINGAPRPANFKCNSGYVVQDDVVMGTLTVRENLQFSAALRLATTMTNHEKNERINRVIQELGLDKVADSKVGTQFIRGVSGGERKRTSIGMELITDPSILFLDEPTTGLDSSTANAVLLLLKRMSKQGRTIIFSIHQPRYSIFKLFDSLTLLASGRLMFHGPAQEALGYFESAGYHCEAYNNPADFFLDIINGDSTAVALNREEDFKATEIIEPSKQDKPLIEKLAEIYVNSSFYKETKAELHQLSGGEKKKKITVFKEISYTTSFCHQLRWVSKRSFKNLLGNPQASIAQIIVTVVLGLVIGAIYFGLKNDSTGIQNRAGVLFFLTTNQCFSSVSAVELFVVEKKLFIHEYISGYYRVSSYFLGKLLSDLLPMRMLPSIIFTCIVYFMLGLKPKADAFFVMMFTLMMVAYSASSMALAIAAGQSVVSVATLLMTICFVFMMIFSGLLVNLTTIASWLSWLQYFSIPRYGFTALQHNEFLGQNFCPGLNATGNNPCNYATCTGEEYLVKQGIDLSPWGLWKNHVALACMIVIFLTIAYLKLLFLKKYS
Method: as §4, §3

Caco-2 cells [4] = assay: Cellular uptake in Caco-2 cells, effect of temperature; type: in vitro ADME; details: 4 °C versus 37 °C, 4 h, 0.2-1.0 μM
Method: as §4, §3

HCT 116 = assay: MTT cytotoxicity assay, HCT 116; type: cell-based; details: HCT 116, MTT, 72 h, mean ± SD (n = 3)
Method: as §1, §2

BCRP [5] = molecular target: T2, BCRP; details: cited from earlier work
P-gp [6] = molecular target: T1, P-gp; details: cited from earlier work
[7] = Caco-2 cells, 0.2 to 1.0 μM, 4 h, MTT

T1 sequence (P08183 whole entry): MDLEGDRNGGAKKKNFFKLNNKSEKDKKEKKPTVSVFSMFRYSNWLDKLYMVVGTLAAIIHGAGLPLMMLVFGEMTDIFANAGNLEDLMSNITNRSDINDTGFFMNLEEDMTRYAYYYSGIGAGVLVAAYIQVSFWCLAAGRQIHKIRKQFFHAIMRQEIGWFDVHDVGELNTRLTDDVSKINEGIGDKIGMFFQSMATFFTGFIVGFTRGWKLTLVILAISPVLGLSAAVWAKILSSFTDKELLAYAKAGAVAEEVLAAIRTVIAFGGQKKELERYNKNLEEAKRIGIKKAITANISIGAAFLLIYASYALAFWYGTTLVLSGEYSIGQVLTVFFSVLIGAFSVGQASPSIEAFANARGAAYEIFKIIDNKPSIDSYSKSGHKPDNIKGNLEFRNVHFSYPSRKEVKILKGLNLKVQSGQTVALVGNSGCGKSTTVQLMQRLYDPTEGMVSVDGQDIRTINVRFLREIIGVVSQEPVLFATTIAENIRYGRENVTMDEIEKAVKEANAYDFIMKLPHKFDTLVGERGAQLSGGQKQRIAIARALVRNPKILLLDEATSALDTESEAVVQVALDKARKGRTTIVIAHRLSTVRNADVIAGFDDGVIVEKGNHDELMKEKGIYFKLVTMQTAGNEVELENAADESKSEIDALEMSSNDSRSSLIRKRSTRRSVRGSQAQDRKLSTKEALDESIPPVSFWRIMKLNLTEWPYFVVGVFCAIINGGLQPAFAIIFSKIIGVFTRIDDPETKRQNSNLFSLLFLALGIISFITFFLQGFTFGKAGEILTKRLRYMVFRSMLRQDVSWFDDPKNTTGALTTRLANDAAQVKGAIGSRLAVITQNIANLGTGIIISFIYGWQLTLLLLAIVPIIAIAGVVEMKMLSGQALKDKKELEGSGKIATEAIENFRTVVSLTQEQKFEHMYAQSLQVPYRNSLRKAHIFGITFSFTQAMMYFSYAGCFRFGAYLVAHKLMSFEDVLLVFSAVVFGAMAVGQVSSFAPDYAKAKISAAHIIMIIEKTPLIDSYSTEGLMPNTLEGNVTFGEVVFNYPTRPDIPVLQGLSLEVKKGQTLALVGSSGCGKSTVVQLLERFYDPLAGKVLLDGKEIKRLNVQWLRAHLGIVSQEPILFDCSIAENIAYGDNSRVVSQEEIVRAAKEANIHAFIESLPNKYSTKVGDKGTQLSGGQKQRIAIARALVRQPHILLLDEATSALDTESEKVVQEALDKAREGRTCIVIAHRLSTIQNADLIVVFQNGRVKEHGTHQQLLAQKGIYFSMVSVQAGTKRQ

Molecule	IC50 (HeLa) [nM]	IC50 (A549) [nM]	Papp AP-BL (Caco-2 cell monolayers; 37 °C)	efflux ratio (ER) = Papp BL-AP/Papp AP-BL (Caco-2 cell monolayers)	IC50 (Hep G2) [nM]	substrate of P-gp (uptake with Verapamil) (P-gp [1])	cell viability (Caco-2 cells [2]; [7])	substrate of BCRP (uptake with Gefitinib) (BCRP [3])	effect of temperature on cellular uptake (Caco-2 cells [4])	IC50 (HCT 116) [nM]	substrate of BCRP (BCRP [5])	cell viability (Caco-2 cells [2])	substrate of P-gp (P-gp [6])	Papp of LY (monolayer integrity marker) (Caco-2 cell monolayers; 20 µg/mL, 2 h, 37 °C)
CC[C@@]1(O)C(=O)OCc2c1cc1n(c2=O)Cc2c-1nc1cc3c(cc1c2-c1ccc(C)c(F)c1)OCO3 [FL77-28, 7-(3-Fluoro-4-methylphenyl)-10,11-methylenedioxy-20(S)-CPT]	22 ± 7	48 ± 7	2.32 ± 0.04 × 10^−6 cm/s	1.14	65 ± 1	not substrates of P-gp	above 90%	not substrates of P-gp or BCRP	no significant effect	45 ± 14				
CC[C@@]1(O)C(=O)OCc2c1cc1n(c2=O)Cc2c-1nc1cc3c(cc1c2-c1ccc(F)c(C)c1)OCO3 [FL77-29, 7-(4-Fluoro-3-methylphenyl)-10,11-methylenedioxy-20(S)-CPT]	36 ± 4	28 ± 4	2.48 ± 0.18 × 10^−6 cm/s	1.40	34 ± 2	mediated by P-gp	above 90%	not a substrate for BCRP	incubation at 4 °C significantly increased the cellar uptake	25 ± 3				
CC[C@@]1(O)C(=O)OCc2c1cc1n(c2=O)Cc2cc3cc4c(cc3nc2-1)OCO4 [FL118, 10,11-methylenedioxy-20(S)-CPT, reference compound]	40 ± 3	43 ± 4			104 ± 2	not substrates of P-gp		not substrates of P-gp or BCRP	no significant effect	50 ± 4	not being a substrate for P-gp or BCRP	above 90%	not being a substrate for P-gp	
Lucifer yellow [LY, reference compound]														0.57 ± 0.14 × 10^−6 cm/s
